Source: patent US12507703B2, “Methods, devices and compositions for preserving human milk” (The Trustees of Princeton University, priority 2023, dated 2025)
Several values for one entry are separate records, joined by “and”; a condition that tells them apart may be missing. Identical values can stand only once. Like-named read-outs stand apart in the source and are kept apart here.

System: lipase
Test: Lipase/lipolysis assay (EnzChek Lipase Substrate, quenched BODIPY-fatty acid conjugate) on stored human milk; note: test concentration or dose not given here

Compound | Lipase (RFU) | Lipase (RFU) ((hydrochloride))
CC(C)=CCC[C@](C)(O[C@@H]1O[C@H](CO[C@@H]2O[C@H](CO)[C@@H](O)[C@H](O)[C@H]2O)[C@@H](O)[C@H](O)[C@H]1O)[C@H]1CC[C@]2(C)[C@@H]1[C@H](O)C[C@@H]1[C@@]3(C)CC[C@H](O[C@@H]4O[C@H](CO)[C@@H](O)[C@H](O)[C@H]4O[C@@H]4O[C@H](CO)[C@@H](O)[C@H](O)[C@H]4O[C@@H]4OC[C@@H](O)[C@H](O)[C@H]4O)C(C)(C)[C@@H]3CC[C@]12C [Notoginsenoside Fa] | 1075.493 RFU | 
C[C@@H]1C(=O)O[C@H]2C[C@@]34[C@H]5C[C@@H](C(C)(C)C)[C@]36[C@@H](OC(=O)[C@@H]6O)O[C@@]4(C(=O)O5)[C@]21O [Ginkgolide A] | 772.6433 RFU | 
COc1ccccc1C(=O)O [2-Methoxybenzoic acid] | 739.8823 RFU and 1090.701 RFU | 
CCCCCCCCCCCCCC(=O)OC[C@@H](O)COP(=O)([O-])OCC[N+](C)(C)C [LysoPC(14:0/0:0)] | 1043.126 RFU | 
O[C@H]1[C@H](O)[C@@H](O)[C@H](O)[C@@H](O)[C@H]1O [i-Inositol] | 1026.636 RFU and 1128.491 RFU | 
CC1C(=O)OC2C(O)C34C5CC(C(C)(C)C)C36C(OC(=O)C6O)OC4(C(=O)O5)C12O (stereo not drawn) [Ginkgolide B] | 1094.796 RFU | 
CCCCCC(=O)O[C@H](CC(=O)[O-])C[N+](C)(C)C [L-Hexanoylcarnitine] | 948.6206 RFU | 
CC(C)=CCC/C(C)=C/CC/C(C)=C/CC[C@]1(C)CCc2cc(O)c(C)c(C)c2O1 [γ-Tocotrienol] | 703.9438 RFU and 665.753 RFU | 
CSCC[C@H](NC=O)C(=O)O [For-Met-OH] | 819.8295 RFU | 
CC1(C)CC[C@]2(C(=O)O)CC[C@]3(C)C(=CC[C@@H]4[C@@]5(C)C[C@H](O)[C@H](O)[C@@](C)(C(=O)O)[C@@H]5CC[C@]43C)[C@@H]2C1 [Medicagenic acid] | 975.8957 RFU | 
Cytidine-2′,3′-cyclic monophosphate | 1332.358 RFU | 
O=c1ccc2cc(O)c(O[C@@H]3O[C@H](CO)[C@@H](O)[C@H](O)[C@H]3O)cc2o1 [Cichoriin] | 714.076 RFU | 
CC1=C(C)C(=O)O[C@@H]([C@](C)(O)[C@H]2CC[C@H]3[C@@H]4[C@@H]5O[C@@H]5[C@@]5(O)CC=CC(=O)[C@]5(C)[C@H]4CC[C@]23C)C1 [Withanolide A] | 840.7696 RFU | 
NC(CCCC(=O)O)C(=O)O (stereo not drawn) [Aminoadipic acid] | 1118.253 RFU | 
Solanesol | 985.7418 RFU | 
CC(CC(=O)CC(C)(O)C1CC(=O)C2(C)C3=C(C(=O)CC12C)C1(C)CCC(=O)C(C)(C)C1CC3O)C(=O)O (stereo not drawn) [Ganoderic acid N] | 866.924 RFU | 
(+)-Catechin hydrate | 928.2252 RFU | 
C[C@H]1CC[C@]2(NC1)O[C@H]1C[C@H]3[C@@H]4CC[C@H]5C[C@@H](O)CC[C@]5(C)[C@H]4CC[C@]3(C)[C@H]1[C@@H]2C [Tomatidine] | 1057.071 RFU | 
COc1cc(C=CC(=O)O)cc(OC)c1OC [3,4,5-Trimethoxycinnamic acid] | 1076.789 RFU | 
C[C@@H]1O[C@@H](O[C@@H]2[C@@H](O)[C@H](O)[C@@H](CO)O[C@H]2c2c(O)cc(O)c3c(=O)cc(-c4ccc(O)cc4)oc23)[C@H](O)[C@H](O)[C@H]1O [Vitexin-2″-O-rhamnoside] | 747.1181 RFU | 
CC(C)=CCC[C@H](C)[C@@H]1CC[C@]2(C)C3=C(CC[C@@]12C)[C@@]1(C)CC[C@H](O)C(C)(C)[C@@H]1CC3 [Tirucallol] | 1060.924 RFU | 

Compound | Lipase (RFU) | Lipase (RFU) ((hydrochloride))
O=C([O-])[C@@H](O)CO.[Na+] [L-Glyceric acid (sodium)] | 822.8712 RFU | 
N[C@@H](CNC(=O)C(=O)O)C(=O)O [Dencichine] | 1365.261 RFU | 
Elemicin | 1009.834 RFU | 
COc1c(O)cc2oc3cc4c(c(O)c3c(=O)c2c1CC=C(C)C)CCC(C)(C)O4 [Compound 3-Isomangostin] | 1135.455 RFU | 
CCCCCCCC(=O)O[C@H](CC(=O)[O-])C[N+](C)(C)C [L-Octanoylcarnitine] | 1071.191 RFU | 
O=c1cc(-c2ccc(O)cc2)oc2c([C@@H]3O[C@H](CO)[C@@H](O)[C@H](O)[C@H]3O)c(O)c([C@@H]3OC[C@@H](O)[C@H](O)[C@H]3O)c(O)c12 [Vicenin-1] | 1046.904 RFU | 
C[C@H]1[C@H](C)CC[C@]2(C)CC[C@]3(C)C(=CC[C@@H]4[C@@]5(C)CC[C@@H](O)[C@](C)(C(=O)O)[C@@H]5CC[C@]43C)[C@H]12 [β-Boswellic acid] | 813.2666 RFU | 
C[C@@H]1O[C@@H](OC[C@H]2O[C@@H](Oc3c(-c4ccc(O)cc4)oc4cc(O)cc(O)c4c3=O)[C@H](O)[C@@H](O)[C@H]2O)[C@H](O)[C@H](O)[C@H]1O [Biorobin] | 791.185 RFU | 
C[C@H]1CC[C@@H](C(C)(C)O)CC2=C1CC[C@@H]2C [Guaiol] | 919.8918 RFU | 
O=C(/C=C/c1ccc(O)c(O)c1)O[C@H]1[C@H](O)C[C@](O)(C(=O)O)C[C@H]1OC(=O)/C=C/c1ccc(O)c(O)c1 [3,4-Dicaffeoylquinic acid] | 721.4239 RFU | 
CC(C)=CCC[C@](C)(O[C@@H]1O[C@H](CO[C@@H]2OC[C@H](O)[C@H](O)[C@H]2O)[C@@H](O)[C@H](O)[C@H]1O)[C@H]1CC[C@]2(C)[C@@H]1[C@H](O)C[C@@H]1[C@@]3(C)CC[C@H](O)C(C)(C)[C@@H]3[C@@H](O)C[C@]12C [Ginsenoside F3] | 878.0505 RFU | 
C=C(C)[C@H]1Cc2c(ccc3c2O[C@@H]2COc4cc(OC)c(OC)cc4[C@@H]2C3=O)O1 [Rotenone] | 542.204 RFU | 
Cl.NCCCC[C@H](N)C(=O)O [L-Lysine hydrochloride] |  | 1184.747 RFU and 890.5892 RFU
CC(C)=CCc1cc2ccc(=O)oc2cc1O [Demethylsuberosin] | 917.5135 RFU | 
CCCCC/C=C\C/C=C\CCCCCCCC(=O)O[C@H](COC(=O)CCCCCCCCCCCCCCCCC)COP(=O)([O-])OCC[N+](C)(C)C | 1049.632 RFU | 
O=c1c(O[C@@H]2O[C@H](CO)[C@H](O)[C@H](O)[C@H]2O[C@@H]2O[C@H](CO)[C@@H](O)[C@H](O)[C@H]2O)c(-c2ccc(O)cc2)oc2cc(O)cc(O)c12 [Panasenoside] | 1093.409 RFU | 
Nc1nc(=O)c2c([nH]1)NCC(CNc1ccc(C(=O)N[C@@H](CCC(=O)O)C(=O)O)cc1)N2C=O (mixture of isomers) [Folinic acid] | 949.4803 RFU | 
C=C(O[C@@H]1C=C(C(=O)O)C=C[C@H]1O)C(=O)O [Chorismic Acid] | 935.6375 RFU | 
CC(=O)[C@H]1CC[C@H]2[C@@H]3CC[C@H]4CC(=O)CC[C@]4(C)[C@H]3CC[C@]12C [5a-Pregnane-3,20-dione] | 1117.705 RFU | 
C[C@]12CCC(=O)C=C1CC[C@@H]1[C@@H]2[C@@H](O)C[C@]2(C)C(=O)CC[C@@H]12 [11-Beta-hydroxyandrostenedione] | 1190.299 RFU | 
O=C(O)[C@@H]1CCN1 [L-Azetidine-2-carboxylic acid] | 953.3787 RFU | 

Compound | Lipase (RFU) | Lipase (RFU) ((hydrochloride))
O=c1cc(-c2ccc(O)cc2)oc2cc(O)c([C@@H]3O[C@H](CO)[C@@H](O)[C@H](O)[C@H]3O[C@@H]3O[C@H](CO)[C@@H](O)[C@H](O)[C@H]3O)c(O)c12 [Meloside A] | 811.3753 RFU | 
CCCCC/C=C\C/C=C\CCCCCCCC(=O)OCC(COC(=O)CCCCCCC/C=C\C/C=C\CCCCC)OC(=O)CCCCCCC/C=C\C/C=C\CCCCC [Trilinolein] | 834.4039 RFU | 
CC(C)[C@H](C)CC[C@@H](C)[C@H]1CC[C@H]2[C@@H]3CC=C4C[C@@H](O)CC[C@]4(C)[C@H]3CC[C@]12C [Campesterol] | 912.1206 RFU | 
C1CNCCN1.O=C(O)CC(O)(CC(=O)O)C(=O)O [Piperazine (citrate)] | 986.285 RFU | 
Gentiobiose | 1106.66 RFU | 
Cl.N[C@@H](CS)C(=O)O [L-Cysteine (hydrochloride)] |  | 936.4597 RFU and 1023.471 RFU
O=S(=O)([O-])c1ccc2c(N=Nc3ccc(S(=O)(=O)[O-])c4ccccc34)c(O)c(S(=O)(=O)[O-])cc2c1.[Na+].[Na+].[Na+] [Amaranth] | 987.0531 RFU | 
Rebaudioside A | 1278.993 RFU | 
CC(C)=CCC[C@](C)(O[C@@H]1O[C@H](CO[C@@H]2OC[C@H](O)[C@H](O)[C@H]2O)[C@@H](O)[C@H](O)[C@H]1O)[C@H]1CC[C@]2(C)[C@@H]1[C@H](O)C[C@@H]1[C@@]3(C)CC[C@H](O[C@@H]4O[C@H](CO)[C@@H](O)[C@H](O)[C@H]4O[C@@H]4O[C@H](CO)[C@@H](O)[C@H](O)[C@H]4O)C(C)(C)[C@@H]3CC[C@]12C [Ginsenoside Rb2] | 872.7793 RFU | 
COc1cc2oc(=O)ccc2c(OC)c1O [Fraxinol] | 772.0122 RFU | 
O=C(O)CN(CCO)CCO [Bicine] | 1070.519 RFU | 
O=c1cc(-c2ccc(O)c(O)c2)oc2cc(O[C@@H]3O[C@H](CO)[C@@H](O)[C@H](O)[C@H]3O)c(O)c(O)c12 [6-Hydroxyluteolin 7-glucoside] | 1135.118 RFU | 
O=C([O-])O.[Na+] [Sodium bicarbonate] | 751.602 RFU | 
CCCCCCCC/C=C\CCCCCCCC(=O)[O-].[Na+] [Sodium oleate] | 985.0339 RFU and 925.2134 RFU | 
C/C=C/C(=O)C1=C(C)C=CCC1(C)C [Damascenone] | 912.4849 RFU | 
O=CCCO [Reuterin] | 1125.363 RFU | 
C[C@H](CCC(=O)O)[C@H]1CC[C@H]2[C@@H]3CC[C@@H]4CC(O)CC[C@]4(C)[C@H]3CC(=O)[C@]12C (stereo partly drawn) [12-Ketodeoxycholic acid] | 778.2255 RFU | 
O=C[C@@H](O)[C@H](O)[C@H](O)CO [Arabinose] | 1341.366 RFU | 
CC(=O)O[C@@H]1C(=O)C2=C(C(=O)C[C@H]3C(C)(C)C(=O)CC[C@]23C)[C@]2(C)C(=O)C[C@H]([C@H](C)CC(=O)CC(C)C(=O)O)[C@@]12C (stereo partly drawn) [Ganoderic acid F] | 791.7198 RFU | 
Eicosadienoic acid | 795.3404 RFU | 
CC(C)C(=O)O[C@H](CC(=O)O)C[N+](C)(C)C.[Cl-] [Isobutyryl-L-carnitine (chloride)] | 1069.653 RFU | 
